Results taken from paper PMC8854719, “Phase 1A/1B dose-escalation and -expansion study to evaluate the safety, pharmacokinetics, food effects and antitumor activity of pamiparib in advanced solid tumours” (British Journal of Cancer, 2021).
Entries after “also recorded” stand apart in the source; their conditions may differ. Marks after values point to notes of the source that are not given here.

Experiment: Safety and tolerability: adverse events, dose-limiting toxicities, MTD, RP2D (Phase 1A/1B)
Type: in vivo
Method: This was an open-label, Phase 1, dose-escalation/dose-expansion study, conducted across six study centres in Australia. The dose-escalation phase evaluated twice-daily (BID) and once-daily (QD) dosing, and the dose-expansion phase evaluated the BID RP2D from the dose-escalation phase and food effects (Fig. 1). The food-effects cohort comprised two sequences: fast followed by fed (sequence 1) and fed followed by fast (sequence 2). […] The decision to proceed to the next dose cohort was determined by the Safety Monitoring Committee and followed a modified 3 + 3 escalation scheme. […] When ≥2 DLTs occurred in the first 23 days of a dose level, the next lower dose level was declared the MTD. Safety was monitored and DLTs were assessed in all dose cohorts. […] The food-effects cohort investigated the effects of food on the PK of pamiparib in patients with advanced solid tumours.
The QD dosing regimen was added as an amendment to the protocol with the purpose of exploring the feasibility of a more convenient regimen.
Safety and tolerability were assessed throughout the study by monitoring adverse events (AEs), serious AEs, clinical laboratory measurements and physical examinations. Adverse events were categorised according to their severity (National Cancer Institute Common Terminology Criteria for Adverse Events v4.03) and relationship to the study treatment.

## C[C@]12CCCN1CC1=NNC(=O)c3cc(F)cc4[nH]c2c1c34 [pamiparib]
80 mg BID (n = 10)
  Ascites, AE of any grade: 1 (10.0) n (%)
  Back pain, AE of any grade: 0 (0.0) n (%)
  Constipation, AE of any grade: 4 (40.0) n (%)
  Cough, AE of any grade: 1 (10.0) n (%)
  Decreased appetite, AE of any grade: 2 (20.0) n (%)
  Diarrhoea, AE of any grade: 1 (10.0) n (%)
  Dose-limiting toxicity: 1 (10.0)^b n (%)
  Dyspnoea, AE of any grade: 0 (0.0) n (%)
  Fatigue, AE of any grade: 4 (40.0) n (%)
  Headache, AE of any grade: 0 (0.0) n (%)
  Hypoalbuminemia, AE of any grade: 0 (0.0) n (%)
  Hypomagnesemia, AE of any grade: 2 (20.0) n (%)
  Hypophosphatemia, AE of any grade: 0 (0.0) n (%)
  Increased AST, AE of any grade: 0 (0.0) n (%)
  Muscle spasms, AE of any grade: 1 (10.0) n (%)
  Nausea, AE of any grade: 8 (80.0) n (%)
  Neutropenia, AE of any grade: 3 (30.0) n (%)
  Non-cardiac chest pain, AE of any grade: 1 (10.0) n (%)
  Pain in extremity, AE of any grade: 0 (0.0) n (%)
  Peripheral sensory neuropathy, AE of any grade: 0 (0.0) n (%)
  Pleural effusion, AE of any grade: 0 (0.0) n (%)
  Pyrexia, AE of any grade: 1 (10.0) n (%)
  Treatment-emergent AE: 10 (100.0) n (%)
  Treatment-emergent AE: Grade 3 or higher: 4 (40.0) n (%)
  Treatment-emergent AE: Leading to death: 1 (10.0) n (%)
  Treatment-emergent AE: Leading to dose interruption: 5 (50.0) n (%)
  Treatment-emergent AE: Leading to dose modification: 5 (50.0) n (%)
  Treatment-emergent AE: Leading to dose reduction: 1 (10.0) n (%)
  Treatment-emergent AE: Leading to treatment discontinuation: 0 (0.0) n (%)
  Treatment-emergent AE: Serious: 3 (30.0) n (%)
  Treatment-related AE: 9 (90.0) n (%)
  Treatment-related AE: Grade 3 or higher: 3 (30.0) n (%)
  Treatment-related AE: Leading to death: 0 (0.0) n (%)
  Treatment-related AE: Leading to dose interruption: 5 (50.0) n (%)
  Treatment-related AE: Leading to dose modification: 5 (50.0) n (%)
  Treatment-related AE: Leading to dose reduction: 1 (10.0) n (%)
  Treatment-related AE: Leading to treatment discontinuation: 0 (0.0) n (%)
  Treatment-related AE: Serious: 1 (10.0) n (%)
  Upper respiratory tract infection, AE of any grade: 5 (50.0) n (%)
  Urinary tract infection, AE of any grade: 2 (20.0) n (%)
  Vomiting, AE of any grade: 2 (20.0) n (%)
80 mg BID, n = 1
  Dose-limiting toxicities observed (description): Grade 2 nausea
120 mg BID (n = 5)
  Abdominal pain, AE of any grade: 0 (0.0) n (%)
  Anaemia, AE of any grade: 3 (60.0) n (%)
  Ascites, AE of any grade: 0 (0.0) n (%)
  Back pain, AE of any grade: 1 (20.0) n (%)
  Constipation, AE of any grade: 0 (0.0) n (%)
  Cough, AE of any grade: 1 (20.0) n (%)
  Decreased appetite, AE of any grade: 2 (40.0) n (%)
  Diarrhoea, AE of any grade: 2 (40.0) n (%)
  Dose-limiting toxicity: 2 (40.0)^c n (%)
  Dyspnoea, AE of any grade: 0 (0.0) n (%)
  Fatigue, AE of any grade: 2 (40.0) n (%)
  Headache, AE of any grade: 0 (0.0) n (%)
  Hypoalbuminemia, AE of any grade: 0 (0.0) n (%)
  Hypomagnesemia, AE of any grade: 0 (0.0) n (%)
  Hypophosphatemia, AE of any grade: 1 (20.0) n (%)
  Increased AST, AE of any grade: 1 (20.0) n (%)
  Muscle spasms, AE of any grade: 0 (0.0) n (%)
  Nausea, AE of any grade: 4 (80.0) n (%)
  Neutropenia, AE of any grade: 1 (20.0) n (%)
  Non-cardiac chest pain, AE of any grade: 1 (20.0) n (%)
  Pain in extremity, AE of any grade: 1 (20.0) n (%)
  Peripheral sensory neuropathy, AE of any grade: 0 (0.0) n (%)
  Pleural effusion, AE of any grade: 1 (20.0) n (%)
  Pyrexia, AE of any grade: 1 (20.0) n (%)
  Treatment-emergent AE: 5 (100.0) n (%)
  Treatment-emergent AE: Grade 3 or higher: 5 (100.0) n (%)
  Treatment-emergent AE: Leading to death: 0 (0.0) n (%)
  Treatment-emergent AE: Leading to dose interruption: 4 (80.0) n (%)
  Treatment-emergent AE: Leading to dose modification: 4 (80.0) n (%)
  Treatment-emergent AE: Leading to dose reduction: 1 (20.0) n (%)
  Treatment-emergent AE: Leading to treatment discontinuation: 2 (40.0) n (%)
  Treatment-emergent AE: Serious: 3 (60.0) n (%)
  Treatment-related AE: 5 (100.0) n (%)
  Treatment-related AE: Grade 3 or higher: 3 (60.0) n (%)
  Treatment-related AE: Leading to death: 0 (0.0) n (%)
  Treatment-related AE: Leading to dose interruption: 3 (60.0) n (%)
  Treatment-related AE: Leading to dose modification: 3 (60.0) n (%)
  Treatment-related AE: Leading to dose reduction: 1 (20.0) n (%)
  Treatment-related AE: Leading to treatment discontinuation: 2 (40.0) n (%)
  Treatment-related AE: Serious: 1 (20.0) n (%)
  Upper respiratory tract infection, AE of any grade: 0 (0.0) n (%)
  Urinary tract infection, AE of any grade: 2 (40.0) n (%)
  Vomiting, AE of any grade: 1 (20.0) n (%)
120 mg BID, two patients, n = 1 each
  Dose-limiting toxicities observed (description): Grade 2 nausea, grade 3 fatigue, and grade 3 paresthesia; also recorded: Grade 2 nausea and Grade 2 anorexia; also recorded: Grade 2 nausea, Grade 3 fatigue and Grade 3 paraesthesia
120 mg QD
  Diarrhea, AE: 50.0%
  Fatigue, AE: 75.0%
  Nausea, AE: 50.0%
120 mg QD (n=8)
  Dose-limiting toxicity: 0 (0.0) n (%)
  Treatment-emergent AE: 8 (100.0) n (%)
  Treatment-emergent AE: Grade 3 or higher: 5 (62.5) n (%)
  Treatment-emergent AE: Leading to death: 0 (0.0) n (%)
  Treatment-emergent AE: Leading to dose interruption: 6 (75.0) n (%)
  Treatment-emergent AE: Leading to dose modification: 6 (75.0) n (%)
  Treatment-emergent AE: Leading to dose reduction: 1 (12.5) n (%)
  Treatment-emergent AE: Leading to treatment discontinuation: 0 (0.0) n (%)
  Treatment-emergent AE: Serious: 2 (25.0) n (%)
  Treatment-related AE: 6 (75.0) n (%)
  Treatment-related AE: Grade 3 or higher: 3 (37.5) n (%)
  Treatment-related AE: Leading to death: 0 (0.0) n (%)
  Treatment-related AE: Leading to dose interruption: 4 (50.0) n (%)
  Treatment-related AE: Leading to dose modification: 4 (50.0) n (%)
  Treatment-related AE: Leading to dose reduction: 1 (12.5) n (%)
  Treatment-related AE: Leading to treatment discontinuation: 0 (0.0) n (%)
  Treatment-related AE: Serious: 0 (0.0) n (%)
160 mg QD
  Diarrhea, AE: 45.5%
  Fatigue, AE: 63.6%
  Nausea, AE: 90.9%
160 mg QD (n=11)
  Dose-limiting toxicity: 1 (9.1)^d n (%)
  Treatment-emergent AE: 11 (100.0) n (%)
  Treatment-emergent AE: Grade 3 or higher: 9 (81.8) n (%)
  Treatment-emergent AE: Leading to death: 0 (0.0) n (%)
  Treatment-emergent AE: Leading to dose interruption: 7 (63.6) n (%)
  Treatment-emergent AE: Leading to dose modification: 7 (63.6) n (%)
  Treatment-emergent AE: Leading to dose reduction: 0 (0.0) n (%)
  Treatment-emergent AE: Leading to treatment discontinuation: 2 (18.2) n (%)
  Treatment-emergent AE: Serious: 4 (36.4) n (%)
  Treatment-related AE: 11 (100.0) n (%)
  Treatment-related AE: Grade 3 or higher: 7 (63.6) n (%)
  Treatment-related AE: Leading to death: 0 (0.0) n (%)
  Treatment-related AE: Leading to dose interruption: 7 (63.6) n (%)
  Treatment-related AE: Leading to dose modification: 7 (63.6) n (%)
  Treatment-related AE: Leading to dose reduction: 0 (0.0) n (%)
  Treatment-related AE: Leading to treatment discontinuation: 2 (18.2) n (%)
  Treatment-related AE: Serious: 1 (9.1) n (%)
160 mg QD, one of 11
  Patients who experienced a DLT: 9%
160 mg QD, one patient
  Dose-limiting toxicities observed (description): grade 2 nausea
101 patients
  Serious AE: anemia: 4.0%
  Serious AE: intestinal obstruction: 4.0%
  Serious AE: malignant gastrointestinal obstruction: 3.0%
